Data on one compound can be found in patent US20080085244A1, “Methods for identifying and using amyloid-inhibitory compounds” (Wyeth, priority 1999, published 2008).

For data set [1], the system named is Aβ40 and Aβ42 peptides. To be noted: physiological concentrations; human primary neuronal (embryonic cerebral cortex) cultures; cited from earlier work.
Data set [2] relates to Aβ40 and Aβ42 peptides. The settings on record: physiological concentrations; rodent primary neuronal (embryonic cerebral cortex) cultures; cited from earlier work.
Another data set concerns brain Aβ. The data set can be described thus: Brain Aβ levels in ovariectomized APP transgenic rodents. The settings on record: ovx APP transgenic rodents; approaching the levels found in intact animals. The class given is in vivo, transgenic mice and rats (human APP). From the text:
Preparation of Brain Extracts.
Detection of sAPPα, flAPP, Aβ40 and Aβ42.

Data set [3] in a line: Uterine weight (E2-induced hypertrophy) in ovariectomized guinea pigs. The class given is in vivo, guinea pig. As to the method: Maintenance of animals and treatment. Ovariectomized (ovx) and intact female guinea pigs were purchased from Hilltop Laboratories (Scottsdale, Pa.); ovx animals were 8 weeks old at the time of surgery. 17β-estradiol (E2) was purchased from Sigma (St. Louis, Mo.). Throughout the study, the animals were fed ad libitum in a controlled lighting environment (12 h/12 h light/dark cycles). After the surgery, the ovx guinea pigs were put on a casein-based, soy-free diet (Purina, Richmond, Ind.) to exclude the presence of phytosteroids in the diet. The intact animals also began receiving soy-free food at approximately 8 weeks of age. […] E2 was administered per os by powdering the hormone into the soy-free chow. Prior to the beginning of the treatment, all animals were weighed. The average daily food intake for each animal using this particular diet was determined in a preliminary experiment.
Tissue collection. At the end of the treatment, all animals were sacrificed by decapitation. Trunk blood was collected for determination of E2 levels in the serum by radioimmunoassay (Diagnostic Products Laboratory). Uteri were removed and weighed to establish E2-induced hypertrophy. The brains were immediately removed, and the cerebellum was dissected away from each brain. The rest of the brain was divided into hemispheres which were snap-frozen and stored at −80° C.
Seven ovx guinea pigs (8 weeks old at the time of ovx) were used. After ovx, the animals were fed soy-free, casein-based diet to avoid the consumption of estrogenic phytosteroids. […] E2 was administered per os by powdering the hormone into the soy-free chow. […] After the treatment, all animals were sacrificed, and blood, uteri, and brains were collected for analysis. Uterine weights and serum E2 levels were determined to document the hormonal status. The levels of Aβ40, Aβ42, and sAPPα in brain tissue were determined using Aβ40- and Aβ42-specific ELISA assays and quantitative immunoblotting, respectively, as described in Methods.
At the end of the E2 treatment, all animals were sacrificed by decapitation, and blood, uteri, and brains were isolated and subjected to analysis.

Data set [4] in a line: Serum E2 levels in ovariectomized APP transgenic rodents. It counts as in vivo, transgenic mice and rats (human APP). To be noted: ovx APP transgenic rodents, E2 in chow 10 days, compared to untreated ovx. The text has this:
(§1) Transgenic APP and APP/PS rodents. Transgenic animals relevant to Alzheimer's Disease have been reviewed (Seabrook and Rosahl, Neuropharmacology, 1999, 38:1-17; see, Detailed Description, supra). Both mice and rats have been made transgenic for APP, for PS1 and for both genes, and with wild-type and FAD mutant forms of the genes,. One group of these animals is ovariectomized. 17β-Estradiol (E2) is purchased from Sigma (St. Louis, Mo.). Animals are fed ad libitum in a controlled lighting environment, using a casine-based, soy-free diet, as described in Example 1. […] E2 is administered per os by powdering the hormone in the soy-free chow. All animals are weighed at the beginning prior to treatment. Average daily food intake is determined prior to treatment as well.
(§2) Tissue collection. After treatment, all animals are sacrificed by decapitation. Trunk blood is collected for determination of E2 levels. Uteri are removed and weighed to establish the presence of atrophy due to estrogen deficiency or E2-induced hypertrophy. Brains are immediately removed and the cerebellum dissected away. The brain is divided into hemispheres which are snap-frozen and stored at −80° C.

A further data set deals with brain Aβ (Aβ40, Aβ42). Kind of data set: Brain Aβ40, Aβ42 and total Aβ levels by ELISA of DEA brain extracts of ovariectomized guinea pigs. The class given is in vivo, guinea pig. As to the method:
Maintenance of animals and treatment. Ovariectomized (ovx) and intact female guinea pigs were purchased from Hilltop Laboratories (Scottsdale, Pa.); ovx animals were 8 weeks old at the time of surgery. […] Throughout the study, the animals were fed ad libitum in a controlled lighting environment (12 h/12 h light/dark cycles). After the surgery, the ovx guinea pigs were put on a casein-based, soy-free diet (Purina, Richmond, Ind.) to exclude the presence of phytosteroids in the diet. The intact animals also began receiving soy-free food at approximately 8 weeks of age. […] Prior to the beginning of the treatment, all animals were weighed. The average daily food intake for each animal using this particular diet was determined in a preliminary experiment.
Tissue collection. At the end of the treatment, all animals were sacrificed by decapitation. […] The brains were immediately removed, and the cerebellum was dissected away from each brain. The rest of the brain was divided into hemispheres which were snap-frozen and stored at −80° C.
Preparation of Brain Extracts. Soluble Proteins from the Brains were Recovered using a modification of an established protocol (Savage et al., J. Neurosci., 1998, 18:1743-52). Briefly, the hemispheres were homogenized in 0.2% diethylamine (DEA)/50 mM NaCl at 1:10 w/v ratio, with 5-6 strokes of a Dounce homogenizer. The DEA homogenate was centrifuged for 90 min at 100,000 g. The DEA supernatants were neutralized to pH about 8.0 by addition of 1/10th vol. of 0.5M Tris-Cl pH 6.8, then aliquoted and snap-frozen. The pellets of the DEA extracts were solubilized in 2% SDS/PBS containing a cocktail of protease inhibitors (“Complete”, Boehringer Mannheim, Germany), sonicated and boiled. The protein concentrations of the DEA and SDS supernatants were determined using the BCA reagent assay kit (Pierce, Rockford, Ill.).
Detection of sAPPα, flAPP, Aβ40 and Aβ42. The amino acid sequence of APP from guinea pigs is 97% identical to the human APP homologue and the Aβ region is 100% identical to human Aβ (Beck et al., Biochim. Biophys. Acta, 1997, 1351:17-21), thus enabling use of well characterized Aβ antibodies to study the effects of estrogen on APP metabolism.
The levels of Aβ40 and Aβ42 were determined by Aβ40- and Aβ42-specific ELISA assays (Mehta et al, Neurosci. Lett., 1998, 241:13-16). For each animal, the levels of Aβ40, Aβ42, and total Aβ were standardized to brain tissue weight and expressed as ng (Aβ)/g (brain tissue, wet weight). In all experiments, animals were coded prior to tissue collection, and the treatment status of each animal was unknown to the investigators at the time of the assays.
Seven ovx guinea pigs (8 weeks old at the time of ovx) were used. After ovx, the animals were fed soy-free, casein-based diet to avoid the consumption of estrogenic phytosteroids. […] After the treatment, all animals were sacrificed, and blood, uteri, and brains were collected for analysis. […] The levels of Aβ40, Aβ42, and sAPPα in brain tissue were determined using Aβ40- and Aβ42-specific ELISA assays and quantitative immunoblotting, respectively, as described in Methods.
A general note: In an ELISA, binding on a coated surface is turned into a signal by an enzyme label.

Data set [5] in a line: Uterine weight in ovariectomized APP transgenic rodents. It counts as in vivo, transgenic mice and rats (human APP). To be noted: ovx APP transgenic rodents, E2 in chow 10 days, compared to untreated ovx.
Source text: as §1, §2

Setting [6] is: ovx + high-dose E2, 5 mg E2/kg BW/day per os, 10 days.
The mark [7] stands for this setting: ovx + low-dose E2, 1 mg E2/kg BW/day per os, 10 days.

Like-named read-outs stand apart in the source and are kept apart here.

In the case of `C[C@]12CC[C@@H]3c4ccc(O)cc4CC[C@H]3[C@@H]1CC[C@@H]2O` [E2, 17β-estradiol], the “levels of Aβ40 and Aβ42 peptides released” value is given as “decreased” in the data set with Aβ40 and Aβ42 peptides [1]; “decreased” with Aβ40 and Aβ42 peptides [2]. In addition, the “levels of brain Aβ after E2 treatment” value in the data set with brain Aβ was “decrease”. The “increase in uterine weight, ovx+E2 group compared to ovx group” value in data set [3] (first experiment, 1 mg E2/kg BW/day per os, 10 days, p=0.0003) is “greater than 3 fold”. Besides, the “state of uteri” value was “uterine hypertrophy” in data set [3] (high-dose E2 for 10 days, weights did not exceed the low-dose group) and “hypertrophied” in data set [3] (low-dose E2 for 10 days, weights comparable to or higher than intact group). The “Uterine weight mean +/− SEM” value in data set [3] (setting [6]) came out at 1.03 ± 0.08 g; in data set [3] (setting [7]), 1.4 ± 0.18 g. For the same compound, the Uterine weight median in data set [3] (setting [6]) is on record as 1.055 g; in data set [3] (setting [7]), 1.37 g. Moreover, the “serum E2 levels after oral E2” value in data set [4] was “dramatic increase”. In addition, the “average decrease in total Aβ levels in brain compared to ovx group” value in the data set with brain Aβ (Aβ40, Aβ42) (first experiment, 1 mg E2/kg BW/day per os, 10 days, p=0.09) came to 20%. Also, the “Total Aβ (median)” value with brain Aβ (Aβ40, Aβ42) (setting [6]) is listed as 2.094 ngAβ/g brain tissue; in the data set on brain Aβ (Aβ40, Aβ42) (setting [7]) it was 2.063 ngAβ/g brain tissue. In addition, the “Total Aβ mean +/− SEM” value with brain Aβ (Aβ40, Aβ42) (setting [6]) is listed as 1.998 +/− 0.175 ngAβ/g brain tissue; with brain Aβ (Aβ40, Aβ42) (setting [7]), 2.023 +/− 0.134 ngAβ/g brain tissue. Moreover, the “average decrease in ovx-associated increase in brain Aβ levels (summary statement)” value in the data set on brain Aβ (Aβ40, Aβ42) (ovx guinea pigs, E2 for ten days beginning 8 weeks after ovx, p<0.01) is given as 20%. For the same compound, the “average decrease for Aβ40 compared to ovx” value with brain Aβ (Aβ40, Aβ42) (second experiment, low-dose E2 10 days, p<0.01) worked out at 18%. In addition, the “average decrease for Aβ42 compared to ovx” value in the data set on brain Aβ (Aβ40, Aβ42) (second experiment, low-dose E2 10 days, p=0.033) was determined as 21%. Besides, the “average decrease of total brain Aβ levels compared to ovx” value in the data set on brain Aβ (Aβ40, Aβ42) (second experiment, low-dose E2 (1 mg/kg BW/day) 10 days, p<0.01) came to 18%. Further, the “uterine effect of oral E2” value in data set [5] is “uterine hypertrophy”.
